Laboratory results reported in PubChem BioAssay AID1648 (Sanford-Burnham Center for Chemical Genomics, 2009).
Active and inactive are the calls of the source. How the calls were made is not given here.

Molecular target: Serine/threonine-protein kinase mTOR (Homo sapiens) (UniProt P42345)
Assay: binders of mTOR FRB domain, biophysical, NMR (AID 1648)
Conditions: NMR binding to FRB domain, chemical shift

Chain of Serine/threonine-protein kinase mTOR (Homo sapiens) (P42345 2015-2114): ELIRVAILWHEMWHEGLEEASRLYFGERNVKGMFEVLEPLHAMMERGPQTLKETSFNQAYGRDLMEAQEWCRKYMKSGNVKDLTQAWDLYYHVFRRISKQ

Row | Compound | Kd
1 | COc1ccc(CC(=O)c2ccc(O)cc2O)cc1 | > 4 mM (inactive)
2 | CC1=CC2C(C(C)C)CCC(C)(O)C2CC1 (stereo not drawn) | > 4 mM (inactive)
3 | O=S1(=O)C=CC(Nc2ccccc2)C1 (stereo not drawn) | > 4 mM (inactive)
4 | CC(O)c1ccc(C(C)O)cc1 (stereo not drawn) | > 4 mM (inactive)
5 | Nc1ccc2c(c1)OCO2 | > 4 mM (inactive)
6 | O=S(=O)(Nc1cccc2cn[nH]c12)c1ccc(F)cc1 | > 4 mM (inactive)
7 | CC(C)CCn1cnc2c1c(=O)n(C)c(=O)n2C | > 4 mM (inactive)
8 | O=S(=O)(Nc1cccnc1Cl)c1ccccc1 | > 4 mM (inactive)
9 | CN(C)N1C(=O)C2CCCCC2C1=O (stereo not drawn) | > 4 mM (inactive)
10 | Cc1[nH]c2ccccc2c1Cc1n[nH]c(=S)n1C | > 4 mM (inactive)
11 | COC(=O)c1scc(C)c1N | > 4 mM (inactive)
12 | CC(=O)c1ccc(NC(=S)N2CCC(O)CC2)cc1 | > 4 mM (inactive)
13 | Cc1[nH]c2ccccc2c1C(=O)CSc1ncn[nH]1 | > 4 mM (inactive)
14 | Cn1c(=O)n(-c2cccc(Cl)c2)c(=O)n1C | > 4 mM (inactive)
15 | CCn1nnc2c(NCc3ccccn3)ncnc21 | > 4 mM (inactive)
16 | C=C1CCC2C(CC2(C)C)C(=O)CCC1O (stereo not drawn) | > 4 mM (inactive)
17 | CNC(=O)Nc1ccc(C(=O)NC)cc1 | > 4 mM (inactive)
18 | O=C1CS/C(=N/N=C2CCCC2)N1 | > 4 mM (inactive)
19 | O=C(O)c1cc2ccccc2[nH]1 | > 4 mM (inactive)
20 | Cc1cccc(NC(=O)c2ccccc2C(=O)O)c1 | > 4 mM (inactive)
21 | CN1CCN(C(=S)c2ccc(N(C)C)cc2)CC1 | > 4 mM (inactive)
22 | CC(C)[C@@H]1CC[C@@H](C)C[C@H]1O | > 4 mM (inactive)
23 | O=c1ccn([C@@H]2O[C@H](COP(=O)(O)OP(=O)(O)OP(=O)(O)O)[C@@H](O)[C@H]2O)c(=O)[nH]1 | > 4 mM (inactive)
24 | CCN1CCC(NC2CCC(O)CC2)CC1 (stereo not drawn) | > 4 mM (inactive)
25 | Cn1cc(Cl)c(C(=O)Nc2ccc(F)cc2F)n1 | > 4 mM (inactive)

Row | Compound | Kd
26 | COc1ccc(-c2coc3cc(O)ccc3c2=O)c(OC)c1 | > 4 mM (inactive)
27 | Cc1cc(=O)c2c(O)cc(O)c(C)c2o1 | > 4 mM (inactive)
28 | OCc1ccc(N2CCOCC2)cc1 | > 4 mM (inactive)
29 | OC[C@@H](O)[C@@H](O[C@@H]1O[C@H](CO)[C@@H](O)[C@H](O)[C@H]1O)[C@H](O)[C@@H](O)CO | > 4 mM (inactive)
30 | Nc1nnc(SCc2ccccc2Cl)s1 | > 4 mM (inactive)
31 | CC(C)(O)P(C)(=O)c1ccccc1 (stereo not drawn) | > 4 mM (inactive)
32 | NC(=O)CSc1nc2ncnc(N)c2[nH]1 | > 4 mM (inactive)
33 | Cc1cc(NC(=O)c2ccc3c(c2)OCO3)no1 | > 4 mM (inactive)
34 | COC1C(O)C(O[C@H]2CC[C@]3(C=O)C4C(CC[C@]3(O)C2)[C@@]2(O)CC[C@H](C3=CC(=O)OC3)[C@@]2(C)C[C@H]4OC(C)=O)OC(C)C1OC(C)=O (stereo partly drawn) | > 4 mM (inactive)
35 | Nc1ncnc(Cl)c1[N+](=O)[O-] | > 4 mM (inactive)
36 | COc1ccc2c(c1)[nH]c1c(C)nccc12 | > 4 mM (inactive)
37 | S=c1[nH]nc(-c2cccnc2)n1Cc1ccccc1 | > 4 mM (inactive)
38 | CCOC12NC(=O)CC(=O)N1C(c1ccccc1)=CS2 (stereo not drawn) | > 4 mM (inactive)
39 | O=C(Nc1cnccn1)c1ccncc1 | > 4 mM (inactive)
40 | CC(=O)Nc1ccc(-c2cn3ccsc3n2)cc1 | > 4 mM (inactive)
41 | CC(CCC(=O)O)[C@H]1CCC2C3CC[C@@H]4CCCC[C@]4(C)C3CC[C@@]21C (stereo partly drawn) | > 4 mM (inactive)
42 | CC1(O)CC2C(CC1O)C2(C)C (stereo not drawn) | > 4 mM (inactive)
43 | C/C=C(\C)C(=O)OC1[C@@H]2C=C3C(CC[C@]4(C)C3CC(=O)O[C@H]4c3ccoc3)C(C)(C2=O)[C@@H](C(O)C(=O)OC)C1(C)C (stereo partly drawn) | > 4 mM (inactive)
44 | COc1c(C(=O)N2CCCC2)ccc2ccccc12 | > 4 mM (inactive)
45 | Cc1occc1C(=O)NC1CCN(C)CC1 | > 4 mM (inactive)
46 | Cc1c(-c2ccccc2)[n+](=O)c(-c2ccco2)c(C)n1[O-] | > 4 mM (inactive)
47 | Cc1n[nH]c(C)c1N | > 4 mM (inactive)
48 | S=C(NCC1CCCO1)NC1CC1 (stereo not drawn) | > 4 mM (inactive)
49 | Cc1cc(C(F)(F)F)n2nc(C(=O)O)c(Cl)c2n1 | > 4 mM (inactive)
50 | NC(=O)CSc1ccc2nnc(-c3ccccc3)n2n1 | > 4 mM (inactive)

Row | Compound | Kd
51 | O=C(O)CN(CCCc1ccccc1)CC(=O)O | > 4 mM (inactive)
52 | C[C@@H]1OC(O[C@H]2[C@H](OC(=O)[C@]34CCC(C)(C)CC3C3=CCC5[C@@]6(C)CC[C@H](OC7O[C@@H](C)[C@H](O[C@@H]8OC[C@@H](O)[C@H](O)[C@H]8O)[C@@H](O)[C@H]7O)C(C)(C)C6CC[C@@]5(C)[C@]3(C)CC4O)OC[C@H](O)[C@H]2O)[C@H](O)[C@H](O)[C@H]1O[C@@H]1O[C@H](CO)[C@@H](O)[C@H](O)[C@H]1O (stereo partly drawn) | > 4 mM (inactive)
53 | CC(C)(C)NC(=O)N1CCC(C(=O)O)CC1 | > 4 mM (inactive)
54 | COn1c(=O)c(-c2ccco2)[n+]([O-])c2ccccc21 | > 4 mM (inactive)
55 | c1ccc(-c2nsc(N3CCCNCC3)n2)cc1 | > 4 mM (inactive)
56 | Nc1ccc2ncsc2c1 | > 4 mM (inactive)
57 | Cn1nnc2c(Cl)ncnc21 | > 4 mM (inactive)
58 | CC(=O)NN1C(=O)/C(=C\c2ccc(O)cc2)SC1=S | > 4 mM (inactive)
59 | Oc1cc2c(cc1O)C1c3ccc(O)c(O)c3OCC1(O)C2 (stereo not drawn) | > 4 mM (inactive)
60 | O=C1C2C3C=CC(C3)C2C(=O)N1c1cccnc1 (stereo not drawn) | > 4 mM (inactive)
61 | COc1cccc(Oc2ccc(N)cc2)c1 | > 4 mM (inactive)
62 | O=C(Nc1nccs1)c1ccc(=O)[nH]n1 | > 4 mM (inactive)
63 | Cc1ccc(-n2ncc(C#N)c2/N=C/N(C)C)cc1 | > 4 mM (inactive)
64 | CC(C)(C)CC(=O)NNC(=O)c1cnccn1 | > 4 mM (inactive)
65 | CC(C)=CC1C(C(=O)O)C1(C)C (stereo not drawn) | > 4 mM (inactive)
66 | O=C(O)/C=C/C=C/c1ccccc1 | > 4 mM (inactive)
67 | O=C(Nc1ccncc1)Nc1ccc(F)cc1F | > 4 mM (inactive)
68 | O=C(O)C1CSC2(CCCCC2)N1 (stereo not drawn) | > 4 mM (inactive)
69 | CCOC(=O)c1c(SC)nc(=O)[nH]c1C | > 4 mM (inactive)
70 | CC1=C(C(N)=O)C(c2cccs2)C(C(N)=O)=C(C)N1 | > 4 mM (inactive)
71 | O=C1CCC(=O)N1c1ccc(F)cc1 | > 4 mM (inactive)
72 | Oc1ccccc1N=Cc1cccnc1 | > 4 mM (inactive)
73 | CN1C2C[C@H](OC(=O)[C@H](CO)c3ccccc3)C[C@H]1[C@@H](O)C2 | > 4 mM (inactive)
